# Source: ChEMBL document CHEMBL4414660, “Effect of Modifier Structure on the Activation of Leukotriene A4 Hydrolase Aminopeptidase Activity” (J Med Chem, 2019)
# Assays:
# [1] = target: T1, Leukotriene A-4 hydrolase (Homo sapiens) (UniProt P09960); assay: (§1) Activation of N-terminal (His)6 and Xpress-tagged LTA4H (unknown origin) expressed in Escherichia coli BL21(DE3) cells assessed as increase in aminopeptidase activity by measuring factor by which activator affects catalytic constant for hyperbolic mixed predominantly catalytic activation using L-Alanine-p-nitroanilide incubated for 10 mins by p-nitroanilide release detection based UV plate reader based assay
# T1 sequence (whole entry): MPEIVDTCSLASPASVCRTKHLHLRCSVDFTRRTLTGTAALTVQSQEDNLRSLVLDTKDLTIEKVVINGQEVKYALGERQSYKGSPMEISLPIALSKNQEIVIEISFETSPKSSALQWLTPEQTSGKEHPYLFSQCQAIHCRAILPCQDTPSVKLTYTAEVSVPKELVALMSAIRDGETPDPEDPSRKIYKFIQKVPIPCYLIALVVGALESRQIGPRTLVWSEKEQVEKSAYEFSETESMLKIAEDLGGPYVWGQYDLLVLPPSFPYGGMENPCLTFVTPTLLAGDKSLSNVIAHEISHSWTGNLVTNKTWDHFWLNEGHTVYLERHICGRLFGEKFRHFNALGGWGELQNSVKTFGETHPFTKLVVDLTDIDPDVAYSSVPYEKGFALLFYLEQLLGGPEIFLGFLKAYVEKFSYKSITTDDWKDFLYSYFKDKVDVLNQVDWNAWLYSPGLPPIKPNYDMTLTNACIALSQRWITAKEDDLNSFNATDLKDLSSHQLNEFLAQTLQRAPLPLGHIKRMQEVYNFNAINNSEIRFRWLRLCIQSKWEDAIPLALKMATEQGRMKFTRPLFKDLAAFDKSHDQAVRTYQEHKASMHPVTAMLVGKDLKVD
# [2] = target: T2, Leukotriene A-4 hydrolase (Homo sapiens, UniProt P09960); assay: Activation of N-terminal (His)6 and Xpress-tagged LTA4H (unknown origin) expressed in Escherichia coli BL21(DE3) cells assessed as increase in aminopeptidase activity by measuring p-nitroanilide release using L-Alanine-p-nitroanilide incubated for 10 mins by UV plate reader based assay
# T2 sequence (P09960 whole entry): T1 sequence (whole entry)
# [3] = target: T1, Leukotriene A-4 hydrolase (Homo sapiens); assay: as §1, with “dissociation” for “factor by which activator affects catalytic”, “constant (KX)” for “constant”
# [4] = target: T1, Leukotriene A-4 hydrolase (Homo sapiens); assay: as §1, with “reciprocal allosteric coupling” for “factor by which activator affects catalytic”
Structure (SMILES),fold change (FC) [1],AC50 [2] [µM],K [3] [µM],K [4]
Nc1nc(-c2ccc(Cc3ccccc3)cc2)cs1,25.4,0.24,1.35,0.82
COc1ccc(Cc2ccccc2)cc1,23.6,4.83,0.18,2.66
